Article PMC5469503 (PLoS Pathogens, 2017)

Legend:
[1] = target: T1, V1 subcomplex of the V-ATPase (Saccharomyces cerevisiae, UniProt P16140+P17255); assay: fluorescence titration (TNP-ATP emission); conditions: pH 7.9, 10.0 °C, 25 mM Tris-HCl, 0.15 M NaCl, 1 mM MgCl2, 0.5 mM DTT, 0.25 μM V1; nucleotide site
T1 construct: gene VMA1

[2] = target: V-ATPase from S. cerevisiae, intact, detergent solubilized (A3B3CDE3FG3Hac8c'c''def), 3xFLAG on the A-subunit (S. cerevisiae) (UniProt P16140); assay: cryo-EM structure

2',3'-O-(2,4,6-trinitrophenyl) adenosine 5'-triphosphate [TNP-ATP]
Kd [1]: 0.16 ± 0.05 µM

SidK, full length (residues 1 to 573) (natural protein)
stoichiometry N [2]: 3
